Source: PMC6333238, “The biosynthetic implications of late-stage condensation domain selectivity during glycopeptide antibiotic biosynthesis” (Chemical Science, 2018)

What was measured:
Test in all cases: coupled PPi-release A-domain assay (PPi-PFK/aldolase/TPI/GDH, NADH)
Type in all cases: biochemical
Conditions in all cases: apo-PCP form, 0.5 mM ATP, 1 mM MgCl2, pH 7.4, 0.1 mM EDTA, enzyme 0.5 μM
Tcp12_ΔTE3 = biological target: T1, Tcp12_ΔTE3 (Actinoplanes teichomyceticus, UniProt Q70AZ6)
T1 construct: gene tcp12; with MbtH-like protein Tcp17
T1 sequence (Q70AZ6 entry or part of it, stated change not applied): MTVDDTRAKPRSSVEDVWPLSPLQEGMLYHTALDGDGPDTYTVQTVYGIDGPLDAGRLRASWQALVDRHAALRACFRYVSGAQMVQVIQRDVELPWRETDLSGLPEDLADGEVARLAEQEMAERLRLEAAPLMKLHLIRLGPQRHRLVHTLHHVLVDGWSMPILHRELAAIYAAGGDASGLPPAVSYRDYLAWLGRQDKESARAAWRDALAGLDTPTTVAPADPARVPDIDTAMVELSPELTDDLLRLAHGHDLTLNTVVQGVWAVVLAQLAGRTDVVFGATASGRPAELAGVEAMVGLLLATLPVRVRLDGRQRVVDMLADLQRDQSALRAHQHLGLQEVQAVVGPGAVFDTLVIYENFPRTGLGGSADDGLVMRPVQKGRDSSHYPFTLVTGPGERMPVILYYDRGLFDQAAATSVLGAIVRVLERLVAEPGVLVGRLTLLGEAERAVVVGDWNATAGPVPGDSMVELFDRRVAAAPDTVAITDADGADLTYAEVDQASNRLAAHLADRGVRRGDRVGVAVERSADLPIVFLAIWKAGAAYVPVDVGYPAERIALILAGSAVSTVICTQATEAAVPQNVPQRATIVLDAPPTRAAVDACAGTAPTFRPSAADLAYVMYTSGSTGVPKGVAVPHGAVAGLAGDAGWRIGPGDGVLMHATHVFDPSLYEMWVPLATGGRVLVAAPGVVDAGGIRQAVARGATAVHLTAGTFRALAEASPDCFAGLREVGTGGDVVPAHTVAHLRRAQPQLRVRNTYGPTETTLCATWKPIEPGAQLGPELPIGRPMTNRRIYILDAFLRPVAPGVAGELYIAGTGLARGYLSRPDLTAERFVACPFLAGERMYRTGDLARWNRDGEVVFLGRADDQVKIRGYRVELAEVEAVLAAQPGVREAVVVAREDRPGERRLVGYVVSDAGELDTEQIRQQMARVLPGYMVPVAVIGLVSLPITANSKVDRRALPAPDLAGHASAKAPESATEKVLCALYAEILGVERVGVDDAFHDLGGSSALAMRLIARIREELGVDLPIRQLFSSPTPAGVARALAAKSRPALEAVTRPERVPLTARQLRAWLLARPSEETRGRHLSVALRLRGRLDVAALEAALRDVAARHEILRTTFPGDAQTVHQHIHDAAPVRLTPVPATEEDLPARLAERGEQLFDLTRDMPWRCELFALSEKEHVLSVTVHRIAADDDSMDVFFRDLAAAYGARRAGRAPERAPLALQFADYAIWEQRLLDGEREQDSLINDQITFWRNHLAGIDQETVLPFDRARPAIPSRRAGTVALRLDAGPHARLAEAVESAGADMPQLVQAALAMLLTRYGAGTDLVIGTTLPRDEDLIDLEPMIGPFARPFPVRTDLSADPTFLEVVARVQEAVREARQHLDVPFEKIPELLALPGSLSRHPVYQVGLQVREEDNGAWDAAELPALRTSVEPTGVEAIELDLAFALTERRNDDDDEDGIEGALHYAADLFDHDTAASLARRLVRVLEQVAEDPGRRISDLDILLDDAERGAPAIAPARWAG
T1 sequence (Q70AZ1 entry or part of it, stated change not applied, further chain): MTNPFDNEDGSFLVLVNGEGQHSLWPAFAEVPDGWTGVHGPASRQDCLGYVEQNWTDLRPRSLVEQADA
Text: coupled PPi-release A-domain assay (PPi-PFK/aldolase/TPI/GDH, NADH) on Tcp12_ΔTE3

Tcp12_ΔTE1 = biological target: T2, Tcp12_ΔTE1 (Actinoplanes teichomyceticus, UniProt Q70AZ6)
T2 construct: gene tcp12; with MbtH-like protein Tcp17
T2 sequence (Q70AZ6 entry or part of it, stated change not applied): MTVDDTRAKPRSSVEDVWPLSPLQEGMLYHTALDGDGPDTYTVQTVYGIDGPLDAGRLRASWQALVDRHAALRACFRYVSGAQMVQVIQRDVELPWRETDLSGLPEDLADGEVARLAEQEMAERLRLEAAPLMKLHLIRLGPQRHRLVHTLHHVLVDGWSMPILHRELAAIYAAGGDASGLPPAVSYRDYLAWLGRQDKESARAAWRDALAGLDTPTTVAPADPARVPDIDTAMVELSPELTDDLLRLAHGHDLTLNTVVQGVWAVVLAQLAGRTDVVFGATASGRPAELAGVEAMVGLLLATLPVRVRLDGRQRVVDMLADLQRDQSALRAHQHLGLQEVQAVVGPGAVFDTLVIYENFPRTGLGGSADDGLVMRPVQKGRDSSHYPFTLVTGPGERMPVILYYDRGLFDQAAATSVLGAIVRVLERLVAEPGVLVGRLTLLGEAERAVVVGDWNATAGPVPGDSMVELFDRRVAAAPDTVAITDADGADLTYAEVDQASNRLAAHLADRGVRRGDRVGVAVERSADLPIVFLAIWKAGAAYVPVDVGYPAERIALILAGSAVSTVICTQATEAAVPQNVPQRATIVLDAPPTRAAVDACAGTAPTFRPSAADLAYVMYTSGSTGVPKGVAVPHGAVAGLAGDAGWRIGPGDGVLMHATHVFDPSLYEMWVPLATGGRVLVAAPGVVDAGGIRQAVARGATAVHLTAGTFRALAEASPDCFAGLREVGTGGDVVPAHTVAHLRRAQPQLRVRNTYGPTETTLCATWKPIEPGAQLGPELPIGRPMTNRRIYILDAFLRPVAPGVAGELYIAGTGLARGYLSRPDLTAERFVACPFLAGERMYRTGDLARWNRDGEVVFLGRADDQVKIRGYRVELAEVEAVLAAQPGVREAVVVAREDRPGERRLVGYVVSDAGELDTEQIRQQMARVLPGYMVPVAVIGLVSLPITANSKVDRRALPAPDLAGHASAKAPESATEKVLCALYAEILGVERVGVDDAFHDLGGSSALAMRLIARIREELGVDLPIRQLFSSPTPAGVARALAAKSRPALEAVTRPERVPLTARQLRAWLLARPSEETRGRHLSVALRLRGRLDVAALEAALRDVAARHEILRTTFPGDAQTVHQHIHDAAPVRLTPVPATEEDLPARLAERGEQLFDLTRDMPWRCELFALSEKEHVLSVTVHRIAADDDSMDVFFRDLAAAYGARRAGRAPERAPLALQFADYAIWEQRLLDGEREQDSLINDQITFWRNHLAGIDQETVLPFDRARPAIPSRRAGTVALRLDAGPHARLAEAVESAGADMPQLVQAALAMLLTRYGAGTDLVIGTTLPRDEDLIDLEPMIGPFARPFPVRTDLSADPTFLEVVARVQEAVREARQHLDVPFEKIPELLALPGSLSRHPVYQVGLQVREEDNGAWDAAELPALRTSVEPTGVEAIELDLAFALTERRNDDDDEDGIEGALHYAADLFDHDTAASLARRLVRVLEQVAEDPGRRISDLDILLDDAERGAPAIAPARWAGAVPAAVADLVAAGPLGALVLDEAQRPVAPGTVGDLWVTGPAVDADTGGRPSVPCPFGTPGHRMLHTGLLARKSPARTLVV
T2 sequence (Q70AZ1 entry or part of it, stated change not applied, further chain): as the sequence (Q70AZ1 entry or part of it, stated change not applied, further chain) above
Text: coupled PPi-release A-domain assay (PPi-PFK/aldolase/TPI/GDH, NADH) on Tcp12_ΔTE1

Tcp12_ΔTE2 = biological target: T3, Tcp12_ΔTE2 (Actinoplanes teichomyceticus, UniProt Q70AZ6)
T3 construct: gene tcp12; with MbtH-like protein Tcp17
T3 sequence (Q70AZ6 entry or part of it, stated change not applied): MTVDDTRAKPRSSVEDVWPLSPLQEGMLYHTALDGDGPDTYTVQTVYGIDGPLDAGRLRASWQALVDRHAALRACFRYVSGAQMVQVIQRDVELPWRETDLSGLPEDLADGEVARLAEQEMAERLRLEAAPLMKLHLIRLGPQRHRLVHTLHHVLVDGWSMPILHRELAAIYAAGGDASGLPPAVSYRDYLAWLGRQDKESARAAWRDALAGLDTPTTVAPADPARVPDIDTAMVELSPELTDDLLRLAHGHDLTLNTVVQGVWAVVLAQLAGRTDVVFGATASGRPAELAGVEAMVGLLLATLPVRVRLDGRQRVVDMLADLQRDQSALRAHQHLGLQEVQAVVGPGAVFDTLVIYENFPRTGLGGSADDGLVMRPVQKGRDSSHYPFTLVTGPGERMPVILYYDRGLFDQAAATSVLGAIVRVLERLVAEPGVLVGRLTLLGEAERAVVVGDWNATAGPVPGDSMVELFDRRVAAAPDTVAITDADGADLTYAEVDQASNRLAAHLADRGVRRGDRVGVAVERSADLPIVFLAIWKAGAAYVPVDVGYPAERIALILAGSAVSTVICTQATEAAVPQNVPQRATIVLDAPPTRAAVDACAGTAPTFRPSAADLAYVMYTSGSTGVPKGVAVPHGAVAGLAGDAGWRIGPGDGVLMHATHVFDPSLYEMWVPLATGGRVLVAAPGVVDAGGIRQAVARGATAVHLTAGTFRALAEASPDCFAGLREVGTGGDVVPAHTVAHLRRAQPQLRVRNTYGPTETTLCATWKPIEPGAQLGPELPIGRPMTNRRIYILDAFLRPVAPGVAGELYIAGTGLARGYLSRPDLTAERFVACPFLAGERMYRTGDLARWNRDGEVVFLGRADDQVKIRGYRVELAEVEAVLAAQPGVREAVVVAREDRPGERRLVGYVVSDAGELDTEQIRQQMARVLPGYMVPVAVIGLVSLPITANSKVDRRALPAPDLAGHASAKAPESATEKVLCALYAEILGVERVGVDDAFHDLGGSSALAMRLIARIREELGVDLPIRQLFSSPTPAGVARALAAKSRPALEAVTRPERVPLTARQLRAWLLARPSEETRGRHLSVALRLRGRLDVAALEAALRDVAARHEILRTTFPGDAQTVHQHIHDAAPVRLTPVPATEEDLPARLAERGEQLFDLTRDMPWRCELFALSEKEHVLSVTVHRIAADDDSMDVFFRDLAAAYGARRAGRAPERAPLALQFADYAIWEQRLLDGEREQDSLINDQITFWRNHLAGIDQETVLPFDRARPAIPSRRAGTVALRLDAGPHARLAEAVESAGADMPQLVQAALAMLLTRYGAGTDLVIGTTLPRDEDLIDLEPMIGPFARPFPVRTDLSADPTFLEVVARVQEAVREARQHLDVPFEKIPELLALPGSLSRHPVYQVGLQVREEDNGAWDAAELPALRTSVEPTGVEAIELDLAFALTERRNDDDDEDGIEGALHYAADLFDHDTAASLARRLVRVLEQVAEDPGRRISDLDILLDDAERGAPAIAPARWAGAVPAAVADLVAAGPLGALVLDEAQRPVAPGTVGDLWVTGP
T3 sequence (Q70AZ1 entry or part of it, stated change not applied, further chain): as the sequence (Q70AZ1 entry or part of it, stated change not applied, further chain) above
Text: coupled PPi-release A-domain assay (PPi-PFK/aldolase/TPI/GDH, NADH) on Tcp12_ΔTE2

Km (Tcp12_ΔTE3): 8 ± 0.6 µM
Km (Tcp12_ΔTE1): 6 ± 0.6 µM
Km (Tcp12_ΔTE2): 10 ± 0.9 µM
Compound: N[C@H](C(=O)O)c1cc(O)cc(O)c1 [Dpg, (S)-3,5-dihydroxyphenylglycine]
